PubChem BioAssay AID1259407 (Chemical Carcinogenesis Research Information System (CCRIS), 2018)
The source made the active and inactive calls. How the calls were made is not given here.

System: CCRIS mutagenicity, Ames/micronucleus/aberration tests
Experiment: CCRIS mutagenicity studies
[1] = Test System: AMES SALMONELLA TYPHIMURIUM, Strain/Indicator: TA98, Metabolic Activation: NONE, Method: STANDARD PLATE
[2] = Test System: AMES SALMONELLA TYPHIMURIUM, Strain/Indicator: TA100, Metabolic Activation: NONE, Method: STANDARD PLATE
[3] = Test System: AMES SALMONELLA TYPHIMURIUM, Strain/Indicator: TA97, Metabolic Activation: NONE, Method: STANDARD PLATE

Compound: O=C(Nc1ccc(Cl)cc1)c1csc([N+](=O)[O-])c1
- mutagenic call [1]: active; positive
- mutagenic call [2]: active; positive

Compound: CC(=O)c1cc(C(C)(C)C)cc2c1CCC2(C)C
- mutagenic call [3]: inactive; negative
- mutagenic call (Test System: AMES SALMONELLA TYPHIMURIUM, Strain/Indicator: TA97, Metabolic Activation: RAT LIVER S-9, AROCLOR 1254, Method: STANDARD PLATE): inactive; negative
- mutagenic call [1]: inactive; negative
- mutagenic call (Test System: AMES SALMONELLA TYPHIMURIUM, Strain/Indicator: TA98, Metabolic Activation: RAT LIVER S-9, AROCLOR 1254, Method: STANDARD PLATE): inactive; negative
- mutagenic call [2]: inactive; negative
- mutagenic call (Test System: AMES SALMONELLA TYPHIMURIUM, Strain/Indicator: TA100, Metabolic Activation: RAT LIVER S-9, AROCLOR 1254, Method: STANDARD PLATE): inactive; negative
- mutagenic call (Test System: AMES SALMONELLA TYPHIMURIUM, Strain/Indicator: TA102, Metabolic Activation: NONE, Method: STANDARD PLATE): inactive; negative
- mutagenic call (Test System: AMES SALMONELLA TYPHIMURIUM, Strain/Indicator: TA102, Metabolic Activation: RAT LIVER S-9, AROCLOR 1254, Method: STANDARD PLATE): inactive; negative

Compound: NC(=NCCCCCCN=C(N)/N=C(\N)Nc1ccc(Cl)cc1)/N=C(\N)Nc1ccc(Cl)cc1
- mutagenic call (End Point: IN VITRO CHROMOSOMAL ABERRATIONS, Test System: SYRIAN HAMSTER EMBRYO (SHE) CELLS, Metabolic Activation: NONE): inactive; negative; toxic at 10 um
- mutagenic call (End Point: IN VITRO CHROMOSOMAL ABERRATIONS, Test System: SYRIAN HAMSTER EMBRYO (SHE) CELLS, Metabolic Activation: RAT, LIVER, S-9): inactive; negative

Compound: CC(C)(C)CBr
- mutagenic call [3]: inactive; negative
- mutagenic call [1]: inactive; negative
- mutagenic call (Test System: AMES SALMONELLA TYPHIMURIUM, Strain/Indicator: TA98, Metabolic Activation: RAT, LIVER, S-9, AROCLOR, Method: STANDARD PLATE): inactive; negative
- mutagenic call [2]: inactive; negative
- mutagenic call (Test System: AMES SALMONELLA TYPHIMURIUM, Strain/Indicator: TA100, Metabolic Activation: RAT, LIVER, S-9, AROCLOR, Method: STANDARD PLATE): inactive; negative
- mutagenic call (Test System: AMES SALMONELLA TYPHIMURIUM, Strain/Indicator: TA1535, Metabolic Activation: NONE, Method: STANDARD PLATE): inactive; negative
- mutagenic call (Test System: AMES SALMONELLA TYPHIMURIUM, Strain/Indicator: TA1537, Metabolic Activation: NONE, Method: STANDARD PLATE): inactive; negative
- mutagenic call (Test System: AMES SALMONELLA TYPHIMURIUM, Strain/Indicator: TA1538, Metabolic Activation: NONE, Method: STANDARD PLATE): inactive; negative
- mutagenic call (Test System: AMES SALMONELLA TYPHIMURIUM, Strain/Indicator: TA2637, Metabolic Activation: NONE, Method: STANDARD PLATE): inactive; negative

Compound: Cc1c(O)cc2c(c1O)C(=O)c1cccc(O)c1C2=O
- mutagenic call (Test System: AMES SALMONELLA TYPHIMURIUM, Strain/Indicator: TA98, Metabolic Activation: NONE, Method: PREINCUBATION): inactive; negative
- mutagenic call (Test System: AMES SALMONELLA TYPHIMURIUM, Strain/Indicator: TA98, Metabolic Activation: RAT, LIVER, S-9, PCB, Method: PREINCUBATION): active; positive
- mutagenic call (Test System: AMES SALMONELLA TYPHIMURIUM, Strain/Indicator: TA100, Metabolic Activation: NONE, Method: PREINCUBATION): inactive; negative
- mutagenic call (Test System: AMES SALMONELLA TYPHIMURIUM, Strain/Indicator: TA100, Metabolic Activation: RAT, LIVER, S-9, PCB, Method: PREINCUBATION): active; positive

Compound: COc1cccc2c1C(=O)c1c(O)c3c(c(O)c1C2=O)C[C@@](O)(C(C)=O)C[C@@H]3O[C@H]1C[C@H](NCc2ccccc2)[C@H](O)[C@H](C)O1
- mutagenic call (Test System: UDS RAT HEPATOCYTES, Strain/Indicator: THY INCORP, Metabolic Activation: NONE, Method: AUTOMATIC COLONY COUNTER): active; positive
